pIC50: −log10 of the molar value.
System: 324938-238-R-J1-PDC complex spheroids viability
Experiment: Anticancer human tumor 324938-238-R-J1-PDC patient-derived bladder carcinoma cell line growth inhibition [CLK]
Conditions: for viability, T/C: stronger effect = lower value; for pIC50: curve of first compound
Description: A high-throughput screen of multi-cell type tumor spheroids was designed to identify active combinations of […] and targeted small molecules. Complex spheroids include a stromal component modeled by human endothelial cells (HUVEC) and fibroblasts modeled by human mesenchymal stem cells (MSCs). The concentration ranges selected for each drug and investigational agent were based upon clinically achievable concentrations if the clinical Cmax of the agent was known.
Compounds. The drugs and investigational agents: cirtuvivint (SM08502; NSC835563), CC-671 (NSC850746), vemurafenib (NSC761431), tapotoclax (NSC804041), sotorasib (NSC818433), adagrasib (NSC831453), MRTX-1133 (NSC836407), BAY2416964 (NSC825713), copanlisib (NSC816437), inavolisib (NSC800729), abemaciclib (NSC768073), osimertinib (NSC779217), entinostat (NSC756642), eltanexor (KPT-8602, NSC794443), venetoclax (NSC766270), ceralasertib (NSC777638), bortezomib (NSC756655), olaparib (NSC753686), talazoparib (NSC767125), alisertib (NSC759677), peposertib (NSC802822), gemcitabine (NSC613327), 5-fluorouracil (NSC19893), SN-38 (NSC673596), oxaliplatin (NSC266046), paclitaxel (NSC125973), and doxorubicin (NSC123127), were obtained from the National Cancer Institute (NCI) Developmental Therapeutics Program Chemical Repository. The FDA-approved anticancer drug set is available from the Developmental Therapeutics Program at https://dtp.cancer.gov/organization/dscb/obtaining/available plates.htm. […] The stock solutions were prepared in dimethyl sulfoxide (DMSO, Sigma-Aldrich, St. Louis, MO, cat. D2650), except for the platinum complexes which were prepared in saline (Quality Biological, Gaithersburg, MD, cat. 114-055-101), at 800-fold the tested concentration and stored at -70 degrees C prior to their use. All drugs and investigational agents were tested over a range starting from a high concentration at or near the clinical Cmax and decreasing in half-log increments. If the clinical Cmax for an agent had not been determined, the highest concentration tested was 10 microM.
Cell Culture. All cells were maintained in an incubator at 37 degrees C and 5% CO2 with 95% humidity. The PDC lines were cultured according to standard operating procedures established by the NCI PDMR. Briefly, all PDCs were thawed and cultured in Matrigel-coated flasks prepared with a working solution of 1X Ham's F-12 nutrient mix, without supplementation (Invitrogen, Waltham, MA, cat. 11765054), 100 U/mL penicillin-streptomycin (Invitrogen, cat. 15140122), and 2.5% Matrigel (Corning Inc., Corning, NY, cat. 354248) for the first three passages. The 947758-054-R-J2-PDC line was cultured in 6B/Colon 1A media, which includes advanced DMEM/F-12 (Thermo Fisher Scientific, cat. 12634028), 10 mM HEPES (Thermo Fisher Scientific, cat. 15630080), 1X GlutaMAX supplement (Thermo Fisher Scientific, cat. 35050061), 0.1 mg/mL primocin (InvivoGen, cat. ant-pm-2), 10% defined fetal bovine serum, heat inactivated (HyClone Laboratories Inc., cat. SH30070.03HI), 1.25 mM N-Acetyl-L-cysteine (Sigma-Aldrich, cat. A9165), 10 mM nicotinamide (Sigma-Aldrich, cat. N0636), 1X B-27 supplement (Thermo Fisher Scientific, cat. 17504044), 1X N-2 supplement (Thermo Fisher Scientific, cat. 17502048), and 10 microM Y-27632 dihydrochloride (Tocris Bioscience, cat. 1254). The 876862-298-R-J1-PDC was cultured in 6E media, which includes all 6B/Colon 1A media components plus 50% L-WRN conditioned media (ATCC, cat. CRL-3276), 50 ng/mL recombinant human EGF recombinant protein (hEGF; Thermo Fisher Scientific, cat. PHG0311), 10 ng/mL recombinant human fibroblast growth factor 10 (hGFG-10; PeproTech, cat. 100-26), 1 ng/mL recombinant human fibroblast growth factor 2 (hFGF-2; PeproTech, cat. 100-18B), and 1 µM prostaglandin E2 (PGE2; Tocris, cat. 2296). The 227483-062-R1-J1-PDC line was cultured in Panc media, containing all 6E components except hFGF-2, with the addition of 500 nM SB-431542 (Selleckchem, cat. S1067) and 10 nM gastrin (Tocris, cat. 3006). […]

[1] = second compound 0.0316 µM, first compound 0.0316 µM
[2] = second compound 0.0316 µM, first compound 0.1 µM
[3] = second compound 0.0316 µM, first compound 0.316 µM
[4] = second compound 0.0316 µM, first compound 1 µM
[5] = second compound 0.0316 µM, first compound 3.16 µM
[6] = second compound 0.0316 µM, first compound 10 µM
[7] = second compound 0.1 µM, first compound 0.0316 µM
[8] = second compound 0.1 µM, first compound 0.1 µM
[9] = second compound 0.1 µM, first compound 0.316 µM
[10] = second compound 0.1 µM, first compound 1 µM
[11] = second compound 0.1 µM, first compound 3.16 µM
[12] = second compound 0.1 µM, first compound 10 µM
[13] = second compound 0.316 µM, first compound 0.0316 µM
[14] = second compound 0.316 µM, first compound 0.1 µM
[15] = second compound 0.316 µM, first compound 0.316 µM
[16] = second compound 0.316 µM, first compound 1 µM
[17] = second compound 0.316 µM, first compound 3.16 µM
[18] = second compound 0.316 µM, first compound 10 µM
[19] = second compound 1 µM, first compound 0.0316 µM
[20] = second compound 1 µM, first compound 0.1 µM
[21] = second compound 1 µM, first compound 0.316 µM
[22] = second compound 1 µM, first compound 1 µM
[23] = second compound 1 µM, first compound 3.16 µM
[24] = second compound 1 µM, first compound 10 µM
[25] = second compound 3.16 µM, first compound 0.0316 µM
[26] = second compound 3.16 µM, first compound 0.1 µM
[27] = second compound 3.16 µM, first compound 0.316 µM
[28] = second compound 3.16 µM, first compound 1 µM
[29] = second compound 3.16 µM, first compound 3.16 µM
[30] = second compound 3.16 µM, first compound 10 µM
[31] = second compound 10 µM, first compound 0.0316 µM
[32] = second compound 10 µM, first compound 0.1 µM
[33] = second compound 10 µM, first compound 0.316 µM
[34] = second compound 10 µM, first compound 1 µM
[35] = second compound 10 µM, first compound 3.16 µM
[36] = second compound 10 µM, first compound 10 µM
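Also: viability read after seven days of drug exposure.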
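For viability, T/C in this document: 100% = DMSO vehicle control wells.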

## CNC(=O)c1ccc(Nc2nc(OC3CCCC3)c3c(-c4ccc5nc(C)oc5c4)c[nH]c3n2)c(OC)c1
Compound 0.0316 µM
  viability, T/C: 86% [middle of 12 runs]
Compound 0.1 µM
  viability, T/C: 28.1% [middle of 12 runs]
Compound 0.316 µM
  viability, T/C: 18.9% [middle of 12 runs]
Compound 1 µM
  viability, T/C: 15.9% [middle of 12 runs]
Compound 3.16 µM
  viability, T/C: 16.8% [middle of 12 runs]
Compound 10 µM
  viability, T/C: 17.5% [middle of 12 runs]
Compound alone, run of 08/15/2023
  IC50: 62.5 nM [middle of 11 runs]

## CC(=O)O[C@H]1C(=O)[C@@]2(C)[C@H]([C@H](OC(=O)c3ccccc3)[C@]3(O)C[C@H](OC(=O)[C@H](O)[C@@H](NC(=O)c4ccccc4)c4ccccc4)C(C)=C1C3(C)C)[C@]1(OC(C)=O)CO[C@@H]1C[C@@H]2O + CN1CCN(c2cc(C(=O)Nc3cc4cc(-c5cnn(C)c5)ccc4cn3)ccn2)CC1
Second compound 0.0316 µM
  pIC50: > 7.50
Second compound 0.1 µM
  pIC50: > 7.50
Second compound 0.316 µM
  pIC50: > 7.50
Second compound 1 µM
  pIC50: > 7.50
Second compound 3.16 µM
  pIC50: > 7.50
Second compound 10 µM
  pIC50: > 7.50
[1]
  viability, T/C: 14.2%
[2]
  viability, T/C: 13.8%
[3]
  viability, T/C: 14.7%
[4]
  viability, T/C: 12.9%
[5]
  viability, T/C: 14.6%
[6]
  viability, T/C: 15.7%
[7]
  viability, T/C: 13.7%
[8]
  viability, T/C: 14%
[9]
  viability, T/C: 13.6%
[10]
  viability, T/C: 13.8%
[11]
  viability, T/C: 14.5%
[12]
  viability, T/C: 16.9%
[13]
  viability, T/C: 16.9%
[14]
  viability, T/C: 15.6%
[15]
  viability, T/C: 15.2%
[16]
  viability, T/C: 16.9%
[17]
  viability, T/C: 15%
[18]
  viability, T/C: 18%
[19]
  viability, T/C: 0.92%
[20]
  viability, T/C: 0.96%
[21]
  viability, T/C: 0.69%
[22]
  viability, T/C: 1.04%
[23]
  viability, T/C: 0.73%
[24]
  viability, T/C: 0.69%
[25]
  viability, T/C: 0.17%
[26]
  viability, T/C: 0.22%
[27]
  viability, T/C: 0.22%
[28]
  viability, T/C: 0.13%
[29]
  viability, T/C: 0.21%
[30]
  viability, T/C: 0.18%
[31]
  viability, T/C: 0.13%
[32]
  viability, T/C: 0.16%
[33]
  viability, T/C: 0.51%
[34]
  viability, T/C: 0.16%
[35]
  viability, T/C: 0.28%
[36]
  viability, T/C: 0.28%

## C=C(F)C(=O)N1CCN(c2nc(OCC3CCCN3C)nc3c2CCN(c2cccc4cccc(Cl)c24)C3)CC1CC#N (stereo unspecified) + CNC(=O)c1ccc(Nc2nc(OC3CCCC3)c3c(-c4ccc5nc(C)oc5c4)c[nH]c3n2)c(OC)c1
Second compound 0.0316 µM
  pIC50: 5.63
Second compound 0.1 µM
  pIC50: > 7.50
Second compound 0.316 µM
  pIC50: > 7.50
Second compound 1 µM
  pIC50: > 7.50
Second compound 3.16 µM
  pIC50: > 7.50
Second compound 10 µM
  pIC50: > 7.50
[1]
  viability, T/C: 89%
[2]
  viability, T/C: 82.6%
[3]
  viability, T/C: 83.2%
[4]
  viability, T/C: 75.7%
[5]
  viability, T/C: 41.3%
[6]
  viability, T/C: 0.18%
[7]
  viability, T/C: 23.1%
[8]
  viability, T/C: 24.9%
[9]
  viability, T/C: 25.2%
[10]
  viability, T/C: 23.1%
[11]
  viability, T/C: 24.9%
[12]
  viability, T/C: 0.17%
[13]
  viability, T/C: 16.2%
[14]
  viability, T/C: 16.2%
[15]
  viability, T/C: 17.7%
[16]
  viability, T/C: 20.2%
[17]
  viability, T/C: 16.7%
[18]
  viability, T/C: 0.14%
[19]
  viability, T/C: 18%
[20]
  viability, T/C: 17%
[21]
  viability, T/C: 15.3%
[22]
  viability, T/C: 17.6%
[23]
  viability, T/C: 16.4%
[24]
  viability, T/C: 0.16%
[25]
  viability, T/C: 17.5%
[26]
  viability, T/C: 15.3%
[27]
  viability, T/C: 14.6%
[28]
  viability, T/C: 16.4%
[29]
  viability, T/C: 14.5%
[30]
  viability, T/C: 0.17%
[31]
  viability, T/C: 16.7%
[32]
  viability, T/C: 16.8%
[33]
  viability, T/C: 15.5%
[34]
  viability, T/C: 18.6%
[35]
  viability, T/C: 14.3%
[36]
  viability, T/C: 0.3%

Source: PubChem BioAssay AID2060621 (Molecular Pharmacology Branch, DTP, NCI, 2025)
